We go through 16 compounds from US12522601B2, “1,3,4-oxadiazole derivative compounds as histone deacetylase 6 inhibitor, and the pharmaceutical composition comprising the same” (CHONG KUN DANG PHARMACEUTICAL CORP., priority 2020, dated 2026).

One test deals with T1, human recombinant HDAC6 (Homo sapiens, UniProt Q9UBN7).
T1 construct: purchased Calbiochem Inc. 382180
T1 sequence (Q9UBN7 1-1215): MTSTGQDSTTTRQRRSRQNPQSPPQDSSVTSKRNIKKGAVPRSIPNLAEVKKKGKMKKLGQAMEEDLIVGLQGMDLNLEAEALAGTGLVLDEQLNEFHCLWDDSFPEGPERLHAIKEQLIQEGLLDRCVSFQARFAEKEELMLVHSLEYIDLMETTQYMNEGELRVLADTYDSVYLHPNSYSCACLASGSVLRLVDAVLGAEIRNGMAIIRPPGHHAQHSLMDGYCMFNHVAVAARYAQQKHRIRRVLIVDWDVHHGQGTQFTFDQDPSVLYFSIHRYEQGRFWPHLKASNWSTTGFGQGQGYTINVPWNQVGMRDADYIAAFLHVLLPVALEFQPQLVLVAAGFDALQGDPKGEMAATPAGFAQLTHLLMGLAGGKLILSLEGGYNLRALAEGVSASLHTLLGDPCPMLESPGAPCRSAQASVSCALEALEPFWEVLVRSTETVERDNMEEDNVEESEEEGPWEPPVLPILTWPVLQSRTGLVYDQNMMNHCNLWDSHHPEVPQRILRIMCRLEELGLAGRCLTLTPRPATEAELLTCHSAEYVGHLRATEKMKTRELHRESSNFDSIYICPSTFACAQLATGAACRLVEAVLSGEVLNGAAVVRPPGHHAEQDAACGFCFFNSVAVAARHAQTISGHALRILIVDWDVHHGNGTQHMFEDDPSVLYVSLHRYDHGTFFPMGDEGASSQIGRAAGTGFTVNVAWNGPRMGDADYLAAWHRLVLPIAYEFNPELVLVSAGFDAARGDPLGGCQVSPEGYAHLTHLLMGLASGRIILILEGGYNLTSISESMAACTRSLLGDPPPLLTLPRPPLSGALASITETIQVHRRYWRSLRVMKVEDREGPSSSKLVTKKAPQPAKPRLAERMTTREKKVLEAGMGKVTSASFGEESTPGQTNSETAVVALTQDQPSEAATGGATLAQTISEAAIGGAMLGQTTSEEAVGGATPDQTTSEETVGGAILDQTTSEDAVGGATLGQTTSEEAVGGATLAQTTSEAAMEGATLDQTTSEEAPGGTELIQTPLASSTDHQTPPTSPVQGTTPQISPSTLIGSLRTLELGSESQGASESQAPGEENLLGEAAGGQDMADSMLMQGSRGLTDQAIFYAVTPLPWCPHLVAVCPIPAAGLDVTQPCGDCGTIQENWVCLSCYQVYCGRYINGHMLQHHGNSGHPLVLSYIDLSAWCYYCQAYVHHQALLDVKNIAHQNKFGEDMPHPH
In words: In vitro HDAC enzyme activity inhibition assay, HDAC6 (HDAC Fluorimetric Drug Discovery Kit). It is filed as biochemical. The following applies: for HDAC6 Selectivity (fold): HDAC6 versus HDAC1; for IC50: human recombinant HDAC6, same protocol as the HDAC1 test. How it is done:
(§1) In order to confirm the selectivity of the compounds represented by Chemical Formula I of the present invention to HDAC6 through HDAC1 and HDAC6 enzyme activity inhibition experiments, a comparison experiment was performed using the material that has already been developed as a control group.
(§2) HDAC enzyme activity was measured using the HDAC Fluorimetric Drug Discovery Kit (Enzo Life Sciences, Inc., BML-AK511, 516). For the HDAC1 enzyme activity test, human recombinant HDAC1 (BML-SE456) was used as an enzyme source and Fluor de Lys®-SIRT1 (BNL-KI177) was used as a substrate. After dispensing 5-fold diluted compounds into a 96-well plate, 0.3 μg of enzyme and 10 μM substrate were added to each well of the plate and allowed to react at 30° C. for 60 minutes. Next, Fluor de Lys® Developer II (BML-KI176) was added and reacted for 30 minutes to complete the reaction, and then the fluorescence values (Ex 360, Em 460) were measured using a multi-plate reader (Flexstation 3, Molecular Device). The HDAC6 enzymes were tested using human recombinant HDAC6 (382180) from Calbiochem Inc., according to the same protocol as the HDAC1 enzyme activity test method. With respect to the final result values, respective IC50 values were calculated using GraphPad Prism 4.0 program, and results thereof were summarized in Table 5 below.

The target of another test is T2, human recombinant HDAC1 (Homo sapiens, UniProt Q13547).
T2 construct: purchased Enzo Life Sciences, Inc. BML-SE456
T2 sequence (Q13547 whole entry): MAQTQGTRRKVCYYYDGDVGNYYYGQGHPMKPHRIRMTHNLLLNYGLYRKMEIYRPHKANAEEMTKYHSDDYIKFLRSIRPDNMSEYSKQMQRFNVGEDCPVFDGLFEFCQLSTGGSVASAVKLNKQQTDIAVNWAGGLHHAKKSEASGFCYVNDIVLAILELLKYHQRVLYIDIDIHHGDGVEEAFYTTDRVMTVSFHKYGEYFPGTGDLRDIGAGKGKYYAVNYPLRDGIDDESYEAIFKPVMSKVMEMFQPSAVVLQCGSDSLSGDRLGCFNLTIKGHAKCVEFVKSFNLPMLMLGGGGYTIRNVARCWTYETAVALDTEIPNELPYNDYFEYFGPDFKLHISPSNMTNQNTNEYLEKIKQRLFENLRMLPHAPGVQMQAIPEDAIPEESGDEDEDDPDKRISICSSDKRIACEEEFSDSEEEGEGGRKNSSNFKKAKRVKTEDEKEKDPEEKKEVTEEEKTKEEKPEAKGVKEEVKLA
In words: In vitro HDAC enzyme activity inhibition assay, HDAC1 (HDAC Fluorimetric Drug Discovery Kit). It is filed as biochemical. The conditions noted are these: human recombinant HDAC1, Fluor de Lys-SIRT1 substrate 10 μM, 30° C. for 60 minutes. How it is done: as §1, §2

On to `CN(C)C(=O)N1CC(C(=O)N(Cc2cn3ccc(-c4nnc(C(F)F)o4)cc3n2)c2cccc(F)c2)C1` [Compound 4205, N3-((7-(5-(difluoromethyl)-1,3,4-oxadiazol-2-yl)imidazo[1,2-a]pyridin-2-yl)methyl)-N3-(3-fluorophenyl)-N1,N1-dimethylazetidine-1,3-dicarboxamide], for which, on human recombinant HDAC6, the “HDAC6 Selectivity (fold)” value was found to be 348 fold and the 50% inhibitory concentration (IC50) was found to be 144 nM. In addition, the IC50 at human recombinant HDAC1 is over 50 µM.
Turning to `CCN1CC(C(=O)N(Cc2cn3ccc(-c4nnc(C(F)F)o4)cc3n2)c2ccccc2)C1` [Compound 4159, N-((7-(5-(difluoromethyl)-1,3,4-oxadiazol-2-yl)imidazo[1,2-a]pyridin-2-yl)methyl)-1-ethyl-N-phenylazetidine-3-carboxamide], the “HDAC6 Selectivity (fold)” value on human recombinant HDAC6 is 118 fold. The IC50 at human recombinant HDAC6 is 425 nM; on human recombinant HDAC1 it was over 50 µM.
The corresponding values for `O=C(C1CN(C2CCOCC2)C1)N(Cc1cn2ccc(-c3nnc(C(F)F)o3)cc2n1)c1cccc(F)c1` [Compound 4195, N-((7-(5-(difluoromethyl)-1,3,4-oxadiazol-2-yl)imidazo[1,2-a]pyridin-2-yl)methyl)-N-(3-fluorophenyl)-1-(tetrahydro-2H-pyran-4-yl) azetidine-3-carboxamide] are 261 fold, 192 nM and over 50 µM.
The corresponding values for `O=C(C1CCN(C2CC3(CCC3)C2)CC1)N(Cc1cn2ccc(-c3nnc(C(F)F)o3)cc2n1)c1cccc(F)c1` [Compound 4618, N-((7-(5-(difluoromethyl)-1,3,4-oxadiazol-2-yl)imidazo[1,2-a]pyridin-2-yl)methyl)-N-(3-fluorophenyl)-1-(spiro[3.3]heptan-2-yl)piperidine-4-carboxamide] are 308 fold, 162 nM and over 50 µM.
As for `O=C(C1CCN(C2CCOCC2)CC1)N(Cc1cn2ccc(-c3nnc(C(F)F)o3)cc2n1)c1ccccc1` [Compound 4120, N-((7-(5-(difluoromethyl)-1,3,4-oxadiazol-2-yl)imidazo[1,2-a]pyridin-2-yl)methyl)-N-phenyl-1-(tetrahydro-2H-pyran-4-yl)piperidine-4-carboxamide], the “HDAC6 Selectivity (fold)” value at human recombinant HDAC6 amounted to 98 fold. Moreover, the 50% inhibitory concentration (IC50) is 509 nM at human recombinant HDAC6 and over 50 µM on human recombinant HDAC1.
Taken in the same sequence, the figures for `Fc1ccc(Cc2cn3ccc(-c4nnc(C(F)F)o4)cc3n2)cc1F` [Compound 3587, 2-(2-(3,4-difluorobenzyl)imidazo[1,2-a]pyridin-7-yl)-5-(difluoromethyl)-1,3,4-oxadiazole] were 150 fold, 334 nM and over 50 µM.
Taken in the same sequence, the figures for `O=C(C1CCN(c2ncccn2)CC1)N(Cc1cn2ccc(-c3nnc(C(F)F)o3)cc2n1)c1ccccc1` [Compound 4132, N-((7-(5-(difluoromethyl)-1,3,4-oxadiazol-2-yl)imidazo[1,2-a]pyridin-2-yl)methyl)-N-phenyl-1-(pyrimidin-2-yl)piperidine-4-carboxamide] were 76 fold, 655 nM and over 50 µM.
In the case of `CCC(=O)N1CCN(C(=O)N(Cc2cn3ccc(-c4nnc(C(F)F)o4)cc3n2)c2cccc(F)c2)CC1` [Compound 4093, N-((7-(5-(difluoromethyl)-1,3,4-oxadiazol-2-yl)imidazo[1,2-a]pyridin-2-yl)methyl)-N-(3-fluorophenyl)-4-propionylpiperazine-1-carboxamide], on human recombinant HDAC6, the “HDAC6 Selectivity (fold)” value is 256 fold and the IC50 worked out at 195 nM. The 50% inhibitory concentration (IC50) on human recombinant HDAC1 is over 50 µM.
Taken in the same sequence, the figures for `CC(CO)N1CC(C(=O)N(Cc2cn3ccc(-c4nnc(C(F)F)o4)cc3n2)c2ccccc2)C1` (stereo not drawn) [Compound 4161, N-((7-(5-(difluoromethyl)-1,3,4-oxadiazol-2-yl)imidazo[1,2-a]pyridin-2-yl)methyl)-1-(1-hydroxypropan-2-yl)-N-phenylazetidine-3-carboxamide] were 224 fold, 223 nM and over 50 µM.
The corresponding values for `O=C(N1CCN(C2CCOCC2)CC1)N(Cc1cn2ccc(-c3nnc(C(F)F)o3)cc2n1)c1ccccc1` [Compound 4038, N-((7-(5-(difluoromethyl)-1,3,4-oxadiazol-2-yl)imidazo[1,2-a]pyridin-2-yl)methyl)-N-phenyl-4-(tetrahydro-2H-pyran-4-yl)piperazine-1-carboxamide] are 382 fold, 131 nM and over 50 µM.
The corresponding values for `Fc1cccc(NCc2cn3ccc(-c4nnc(C(F)F)o4)cc3n2)c1` [Compound 3670, N-((7-(5-(difluoromethyl)-1,3,4-oxadiazol-2-yl)imidazo[1,2-a]pyridin-2-yl)methyl)-3-fluoroaniline] are 226 fold, 221 nM and over 50 µM.
As for `O=C(CO)N1CC(C(=O)N(Cc2cn3ccc(-c4nnc(C(F)F)o4)cc3n2)c2ccccc2)C1` [Compound 4169, N-((7-(5-(difluoromethyl)-1,3,4-oxadiazol-2-yl)imidazo[1,2-a]pyridin-2-yl)methyl)-1-(2-hydroxyacetyl)-N-phenylazetidine-3-carboxamide], at human recombinant HDAC6, the “HDAC6 Selectivity (fold)” value is 61 fold and the IC50 came to 815 nM. At human recombinant HDAC1, the IC50 is over 50 µM.
Consider `O=C(C1COC1)N1CCN(C(=O)N(Cc2cn3ccc(-c4nnc(C(F)F)o4)cc3n2)c2ccccc2)CC1` [Compound 4102, N-((7-(5-(difluoromethyl)-1,3,4-oxadiazol-2-yl)imidazo[1,2-a]pyridin-2-yl)methyl)-4-(oxetan-3-carbonyl)-N-phenylpiperazine-1-carboxamide], for which, on human recombinant HDAC6, the “HDAC6 Selectivity (fold)” value is 164 fold and the half-maximal inhibitory concentration (IC50) worked out at 305 nM. For the same compound, the IC50 on human recombinant HDAC1 is over 50 µM.
The corresponding values for `CCN1CC(C(=O)N(Cc2cn3ccc(-c4nnc(C(F)F)o4)cc3n2)c2cccc(F)c2)C1` [Compound 4189, N-((7-(5-(difluoromethyl)-1,3,4-oxadiazol-2-yl)imidazo[1,2-a]pyridin-2-yl)methyl)-1-ethyl-N-(3-fluorophenyl) azetidine-3-carboxamide] are 315 fold, 159 nM and over 50 µM.
The corresponding values for `CC(=O)N1CC(C(=O)N(Cc2cn3ccc(-c4nnc(C(F)F)o4)cc3n2)c2cccc(F)c2)C1` [Compound 4197, 1-acetyl-N-((7-(5-(difluoromethyl)-1,3,4-oxadiazol-2-yl)imidazo[1,2-a]pyridine-2-yl)methyl)-N-(3-fluorophenyl) azetidine-3-carboxamide] are 207 fold, 242 nM and over 50 µM.
The corresponding values for `FC(F)c1nnc(-c2ccn3cc(Cc4ccccc4)nc3c2)o1` [Compound 3009, 2-(2-benzylimidazo[1,2-a]pyridin-7-yl)-5-(difluoromethyl)-1,3,4-oxadiazole] are 631 fold, 79.2 nM and over 50 µM.
